Assay results: ChEMBL document CHEMBL1135015, “Silanediol-based inhibitor of thermolysin” (Bioorg Med Chem Lett, 2002)

Biological target: T1, Thermolysin (Bacillus thermoproteolyticus, UniProt P00800)
T1 sequence (P00800 whole entry): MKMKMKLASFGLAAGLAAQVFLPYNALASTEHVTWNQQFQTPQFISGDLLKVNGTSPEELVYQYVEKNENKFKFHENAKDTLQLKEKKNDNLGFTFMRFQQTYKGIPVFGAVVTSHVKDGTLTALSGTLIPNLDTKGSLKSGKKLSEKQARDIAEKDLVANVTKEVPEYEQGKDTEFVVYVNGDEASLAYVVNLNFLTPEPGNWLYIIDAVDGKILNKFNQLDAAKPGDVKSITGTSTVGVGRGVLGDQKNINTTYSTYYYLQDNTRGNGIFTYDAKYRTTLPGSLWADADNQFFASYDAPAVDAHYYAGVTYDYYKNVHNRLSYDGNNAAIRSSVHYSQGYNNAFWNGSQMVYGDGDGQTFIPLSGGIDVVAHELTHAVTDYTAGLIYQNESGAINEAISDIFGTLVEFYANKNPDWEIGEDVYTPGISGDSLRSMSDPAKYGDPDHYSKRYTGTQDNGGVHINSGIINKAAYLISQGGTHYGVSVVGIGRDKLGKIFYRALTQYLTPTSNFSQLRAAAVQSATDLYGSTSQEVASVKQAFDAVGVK
Assay: Competitive inhibition of thermolysin evaluated using the substrate FAGLA (Sigma); Competitive binding observed

| SMILES | Ki [nM] |
| --- | --- |
| CC(C)C[C@H](CP(=O)(O)CNC(=O)OCc1ccccc1)C(=O)N[C@@H](CC(C)C)C(=O)O | 11 |
| CC(C)C[C@@H](CO)C[Si](CN)(c1ccccc1)c1ccccc1 | 41 |
| CC(C)C[C@H](C[Si](O)(O)CNC(=O)CCc1ccccc1)C(=O)N[C@@H](CC(C)C)C(=O)O | 41 |
